Experimental data from BindingDB's records for doi:10.7270/Q2TX3CTT (Broad Institute, 2010).

Molecular target: Glycogen synthase kinase-3 beta (Homo sapiens, UniProt P49841)
Test: concentration-response blocking of human GSK3B – biochemical, luminescence, cell-free homogeneous, retest, dose response (AID 434954)

Glycogen synthase kinase-3 beta, sequence (P49841 whole entry): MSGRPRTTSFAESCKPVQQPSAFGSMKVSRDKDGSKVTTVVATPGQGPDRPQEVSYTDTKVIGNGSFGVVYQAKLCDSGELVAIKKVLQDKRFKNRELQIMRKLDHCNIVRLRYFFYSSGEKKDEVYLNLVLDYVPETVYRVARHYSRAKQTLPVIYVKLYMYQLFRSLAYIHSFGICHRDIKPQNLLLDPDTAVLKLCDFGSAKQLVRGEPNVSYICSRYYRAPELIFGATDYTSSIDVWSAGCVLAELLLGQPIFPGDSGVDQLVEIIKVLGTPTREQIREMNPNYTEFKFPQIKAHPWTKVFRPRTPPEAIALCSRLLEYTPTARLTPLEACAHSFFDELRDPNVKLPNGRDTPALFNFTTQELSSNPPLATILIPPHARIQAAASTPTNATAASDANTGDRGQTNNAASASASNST

Row | Compound | EC50 [µM]
1 | COc1ccc(CCNC(=O)CN2CCOc3ccccc32)cc1OC [2-(2,3-dihydro-1,4-benzoxazin-4-yl)-N-[2-(3,4-dimethoxyphenyl)ethyl]acetamide] | > 300
2 | CN(C)Cc1c(C(=O)NN=Cc2ccncc2)nnn1-c1nonc1N | 6.17
3 | Cc1nnc(SCC(=O)N2CCC(C(=O)Nc3nccs3)CC2)n1Cc1ccccc1 | 36.6
4 | O=C(CSc1ccc2nnc(-c3cccs3)n2n1)N1CCCC1 [1-(1-pyrrolidinyl)-2-[(3-thiophen-2-yl-[1,2,4]triazolo[4,3-b]pyridazin-6-yl)thio]ethanone] | > 300
5 | Cc1ccccc1-c1nnc(SCc2ccccc2F)o1 [2-[(2-fluorobenzyl)thio]-5-(2-methylphenyl)-1,3,4-oxadiazole] | > 300
6 | CCOC(=O)C1(Cc2cccc(F)c2)CCN(Cc2cn(CC)nc2C)CC1 [1-[(1-ethyl-3-methyl-4-pyrazolyl)methyl]-4-[(3-fluorophenyl)methyl]-4-piperidinecarboxylic acid ethyl ester] | > 300
7 | CN1CCN(c2cc([N+](=O)[O-])ccc2Cl)CC1 | > 300
8 | NC(=O)CN(c1ccc([N+](=O)[O-])cc1)S(=O)(=O)c1ccccc1 [2-[N-(benzenesulfonyl)-4-nitroanilino]acetamide] | > 300
9 | COc1cc2ncnc(Nc3ccc4c(c3)OCO4)c2cc1OC | > 300
10 | CC(C)CCNc1nc(N)c([N+](=O)[O-])c(NCCO)n1 [2-[[6-amino-2-(3-methylbutylamino)-5-nitropyrimidin-4-yl]amino]ethanol] | 6.82
11 | O=C(Nc1ccccc1)Nc1ccccn1 [1-phenyl-3-pyridin-2-ylurea] | > 300
12 | O=c1cc(O)cc2oc(-c3ccc(O)c(O)c3)c(O[C@@H]3O[C@H](CO)[C@@H](O)[C@H](O)[C@H]3O)c(O)c1-2 [Quercetin 3-O-beta-D-glucoside] | 15.8
13 | Cc1ccc(CN=Nc2ncnc3nc[nH]c23)cc1 [MLS000419179] | 30.1
14 | C[C@H](NC(=O)[C@@H]1CSC2c3ccccc3C(=O)N21)C(=O)NCc1c(F)cccc1Cl (stereo partly drawn) [(3R)-N-[(2S)-1-[(2-chloro-6-fluorophenyl)methylamino]-1-oxopropan-2-yl]-5-oxo-3,9b-dihydro-2H-thiazolo[2,3-a]isoindole-3-carboxamide] | > 300
15 | Cc1[nH][nH]c(=O)c1N=Nc1ccccc1C#N [2-[2-(3-methyl-5-oxopyrazol-4-yl)hydrazinyl]benzonitrile] | 15.9
16 | CC(C)Cn1nc(NC(=O)c2cccs2)c2cc3ccccc3nc21 [N-[1-(2-methylpropyl)-3-pyrazolo[3,4-b]quinolinyl]-2-thiophenecarboxamide] | 21.5
17 | CCn1nc(NC(=O)CC(C)C)c2cc3ccc(C)cc3nc21 [N-(1-ethyl-7-methylpyrazolo[3,4-b]quinolin-3-yl)-3-methylbutanamide] | > 300
18 | Cn1cc(S(=O)(=O)NCc2ccc(F)cc2)c(=O)n(C)c1=O | > 300
19 | COc1ccc(C(C)(C)C)cc1NS(=O)(=O)c1cccc2cccnc12 | > 300
20 | CC(=NNC(=O)c1nnn(-c2nonc2N)c1CN1CCc2ccccc21)c1ccccc1O [MLS001076839] | > 300
21 | COC(=O)c1sccc1NC(=O)c1cccc(OC)c1 [methyl 3-[(3-methoxyphenyl)carbonylamino]thiophene-2-carboxylate] | > 300

Continued, values first:

Row | EC50 [µM] | Compound
22 | > 300 | Cc1ccc2sc(N3CCN(CCNC(=O)c4ccco4)CC3)nc2c1C [SMR000811862]
23 | > 300 | COc1ccc(-c2nc(-c3ccccc3)[nH]c(=O)c2C#N)cc1 [SMR000168458]
24 | > 300 | O=C1N=C(Nc2ccc(O)cc2)SC1=Cc1ccco1 [SMR000298037]
25 | > 300 | CC(C(=O)NCC1CCCO1)n1cc([N+](=O)[O-])cn1 (stereo not drawn) [SMR000296777]
26 | > 300 | CCc1nn(CC(=O)NCCCc2ccccc2)c(=O)c2cc3c(OC)cccc3n12 [SMR000624506]
27 | > 300 | CCc1ccc(S(=O)(=O)Nc2ccc(O)c3c(=O)cc(-c4ccccc4Cl)oc23)cc1 [SMR000465243]
28 | > 300 | Brc1ccc(CSc2nnc(-c3cccnc3)o2)cc1 [SMR000292494]
